Measurements published in patent US6355785B1, “Guanosine-rich oligonucleotide integrase inhibitors” (Aronex Pharmaceuticals, Inc., priority 1993, dated 2002).
Where two headings read alike, the source gives them in different places.

Assays:
[1] = Thermal denaturation of oligomer fold (UV, Tm); type: physicochemical
[2] = target: recombinant HIV-1 integrase (wild-type) (Human immunodeficiency virus type 1 group M subtype B, UniProt P12497); assay: HIV-1 integrase 3′-processing and strand transfer assays; type: biochemical; parameters: Purified recombinant HIV-1 integrase enzyme (wild-type) was a generous gift from Dr. R. Craigie; purchased gift of Dr. R. Craigie, Laboratory of Molecular Biology, NIDDK (not bought)
Procedure: Integrase enzyme assays. Purified recombinant HIV-1 integrase enzyme (wild-type) was a generous gift from Dr. R. Craigie, Laboratory of Molecular Biology, National Institute of Diabetes and Digestive and Kidney Diseases. The enzyme (0.25 μM) was preincubated in reaction buffer at 20° C. for 30 minutes. All 3′-processing and strand-transfer reactions were performed as described previously by Fresen et al. (Fresen, et al., Proc. Natl. Acad. Sci. USA 90:2399-2403 (1993)) and Mazumder et al. (Mazumder, et al., Proc. Natl. Acad. Sci. USA 91:5771-5775 (1994)). Enzyme reactions were quenched by the addition of Maxam-Gilbert loading dye, and an aliquot was electrophoresed on a denaturing 20% polyacrylamide gel. Gels were then dried and subjected to autoradiography using Kodax XAR-2 film or exposed in a Molecular Dynamics Phospholmager cassette.
Integrase was preincubated at a final concentration of 200 (for HIV-1 and HIV-2) or 600 nM (for FIV and SIV) with inhibitor in reaction buffer (50 mM Nac1, 1 mM HEPES, pH 7.5, 50 μM dithiothreitol, 10% glycerol (wt/vol), 7.5 mM MnCl2 or MgCL2 (when specified), 0.1 mg/mL bovine serum albumin, 20 mM 2-mercaptoethanol, 10% dimethyl sulfoxide, and 25 mM MOPS, pH 7.2) at 30° C. for 30 minutes. When magnesium was used as the divalent metal ion, polyethylene glycol was added at a final concentration of 5% to increase activity as previously described (Engelman & Craigie, 1995). Preincubation for 30 minutes of the enzyme with inhibitor was performed to optimize increases the inhibitory activity in the 3′-processing reaction (Fesen et al., 1994). Then, 30 nM of the 5′-end ^32P-labeled linear oligonucleotide substrate was added, and incubation was continued for an additional 1 hr. The final reaction volume was 16 μL.
Electrophoresis and quantitation. Reactions were quenched by the addition of an equal volume […] of loading dye (98% deionized formamide, 10 mM EDTA, 0.025% xylene cyanol, 0.025% bromophenol blue). An aliquot (5 μL) was electrophoresed on a denaturing 20% polyacrylamide gel (0.09 M Tris-borate pH 8.3, 2 mM EDTA, 20% acrylamide, 8M urea). Gels were dried, exposed in a Molecular Dynamics Phosphorimager cassette, and analyzed using a Molecular Dynamics phosphorimager (Sunnyvale, Calif.). Percent inhibition was calculated using the following equation:
where C, N, and D are the fractions of 21mer substrate converted to 19mer (3′-processing product) or strand transfer products for DNA alone, DNA plus integrase, and integrase plus drug, respectively.
Antiviral assay. The RF laboratory strain of HIV-1 was used to infect established cell lines for one hour at 37° C. prior to washing and resuspension in medium containing increasing concentrations of drug. […] Purified recombinant HIV-1 integrase enzyme (wild-type) was a generous gift from Dr. Craigie, Laboratory of Molecular Biology, NIDDK. All 3′-processing and strand-transfers were performed as described previously by Fresen et al. (Fresen et al. (1993) Proc. Natl. Acad. Sci. VSA 90, 2399-2403) and Mazurnder et al. (Mazumder et al. (1994) Proc. Natl. Acad. Sci. USA 91, 5771-75).

[3] = Oligomer folding by circular dichroism; conditions: KCl, 25° C., 20 mM Li3PO4
[4] = tested on: HIV-1 strains (SKI, RF, DV, IIIB, ADP/141); assay: microbe, parasite or virus in culture; type: cell-based
Influenza A (H3N2) = Influenza A (H3N2) assay
[5] = tested on: Vesicular Stomatitis virus
HIV-2 (ROD, EHO) = assay: HIV-2 infection assay in MT4 cells; type: cell-based; conditions: read-out: IC50 virus production
SIVMAC251 = type: cell-based, simian immunodeficiency virus; conditions: SIVMAC251, MT4; read-out: IC50 virus production
[6] = target: HIV-1 gp120 interaction with CD4 (Human immunodeficiency virus type 1 group M subtype B, UniProt P04578)
HIV-1DV = assay: HIV-1 p24 production in SUP T1 cells; type: cell-based
HIV-1 strain DV = assay: HIV-1 induced syncytia formation assay in SUP T1 cells; type: cell-based
SUP T1 cells [7] = tested on: SUP T1 cells
HIV-1 RT = HIV-1 RT (Human immunodeficiency virus type 1 group M subtype B, UniProt P04585); assay: In vitro inhibition of HIV-1 RT (kinetic analysis); type: biochemical; conditions: for IC50: read-out: ID50 (the source's name)
[8] = tested on: CD4- and gp120-mediated cell fusion; assay: cells; type: cell-based; conditions: HL2/3, read-out: IC50 CD4- and gp120-mediated cell fusion
HIV-1SKI = assay: Single cycle analysis of HIV-1 cDNA, CEM-SS cells; type: cell-based; conditions: 10- to 100-fold over IC50
HIV-1IIIB = assay: Time of drug addition study, MT-4 cells (p24); type: cell-based; conditions: 100-fold IC50, MOI 1, p24 at 29 hour
HIV-1RF = assay: HeLa-CD4-LTR-β-galactosidase cell virus infection assay; type: cell-based; conditions: Human immunodeficiency virus 1; HIV-1RF; read-out: IC50 β-galactosidase production, virus infection assay
SUP T1 cells [9] = assay: Cytotoxicity assay, CellTiter 96 (MTS), SUP T1 cells; conditions: read-out: TC50 (concentration reducing cell proliferation by 50%); SUP T1, dye (MTS) metabolism assay
[10] = read-out: ID50 [CD4], oligo binding to immobilized CD4
[11] = read-out: ID50 [gp 120], oligo preincubated with soluble gp120
[12] = SUP T1, HIV-1 DV, read-out: IC50 in anti-HIV-1 syncytia formation assay

Molecule: 5′-gtggtgggtgtggtgggt-3′ (GTGGTGGGTGTGGTGGGT; phosphorothioate termini, further chemistry not given here) [T30676, pPT variant T30177]
- Tm ([1]; 1 mM KCl): 33 °C
- Tm ([1]; 10 mM KCl): 46 °C
- Tm ([1]; 180 mM KCl): 65 °C
- IC50 ([2]; read-out: Enzyme IC50 3-′process): 134 nM
- IC50 ([2]; read-out: IC50 STR · TRA): 134 ± 16 nM
- midpoint of K+ induced folding transition (CD, 264 nm) [3]: 0.27 mM
- IC50 ([4]; anti-HIV-1 virus production, read-out: Cell Culture IC50): 1000 nM
- IC50 ([4]; cell culture, read-out: IC50 HIV-1RF): 1000 nM

Molecule: Dextran sulfate [DS5000, reference compound]
- IC50 virus-induced cytopathogenicity (Punta Toro virus; Punta Toro virus): 10.9 µg/mL
- MCC minimum concentration altering normal cell morphology (Punta Toro virus; Punta Toro virus assay): >400 μg/mL
- IC50 virus-induced cytopathogenicity (Vaccinia virus): >400 µg/mL
- MCC minimum concentration altering normal cell morphology (Vaccinia virus): >400 μg/mL
- MCC minimum concentration altering normal cell morphology (Influenza A (H3N2)): >400 μg/mL
- IC50 virus-induced cytopathogenicity [5]: 20 µg/mL
- MCC minimum concentration altering normal cell morphology [5]: >400 μg/mL
- IC50 virus-induced cytopathogenicity (HSV-2 (G); HSV-2 (G)): 2 µg/mL
- MCC minimum concentration altering normal cell morphology (HSV-2 (G); HSV-2 (G) assay): >400 μg/mL
- IC50 virus-induced cytopathogenicity (Yellow Fever virus): 26 µg/mL
- MCC minimum concentration altering normal cell morphology (Yellow Fever virus): >200 μg/mL
- IC50 virus-induced cytopathogenicity (Junin virus): 13 µg/mL
- MCC minimum concentration altering normal cell morphology (Junin virus): >200 μg/mL
- IC50 virus-induced cytopathogenicity (RSV (A2); RSV (A2)): 4 µg/mL
- MCC minimum concentration altering normal cell morphology (RSV (A2); RSV (A2) assay): >200 μg/mL
- IC50 virus-induced cytopathogenicity (Sindbis virus; Sindbis virus): 10 µg/mL
- MCC minimum concentration altering normal cell morphology (Sindbis virus; Sindbis virus assay): >400 μg/mL
- IC50 virus-induced cytopathogenicity (HSV-1; HSV-1 (KOS)): 2 µg/mL
- MCC minimum concentration altering normal cell morphology (HSV-1; HSV-1 (KOS) assay): >400 μg/mL
- IC50 virus-induced cytopathogenicity (HSV-1; HSV-1 TK (B2006)): 2 µg/mL
- MCC minimum concentration altering normal cell morphology (HSV-1; HSV-1 TK (B2006) assay): >400 μg/mL
- IC50 virus-induced cytopathogenicity (HSV-1; HSV-1 TK (VMW1837)): 2 µg/mL
- MCC minimum concentration altering normal cell morphology (HSV-1; HSV-1 TK (VMW1837) assay): >400 μg/mL
- IC50 ([2]; 3′-processing, read-out: Anti-Integrase Assay IC50 3′-proc): 70 nM
- IC50 ([2]; strand transfer, read-out: Anti-Integrase Assay IC50 strand tran.): 60 nM
- IC50 virus-induced cytopathogenicity (Semliki forest virus; Semliki forest virus): >400 µg/mL
- MCC minimum concentration altering normal cell morphology (Semliki forest virus; Semliki forest virus assay): >400 μg/mL
- IC50 virus-induced cytopathogenicity (Tacaribe): 13.5 µg/mL
- MCC minimum concentration altering normal cell morphology (Tacaribe): >200 μg/mL
- IC50 virus-induced cytopathogenicity (Polio virus-1): >400 µg/mL
- MCC minimum concentration altering normal cell morphology (Polio virus-1): >400 μg/mL
- IC50 (HIV-2 (ROD, EHO); HIV-2EHO): 84 ± 86 nM
- IC50 (HIV-2 (ROD, EHO); HIV-2ROD): 82 ± 88 nM
- IC50 ([4]; HIV-1 ADP/141 (AZT resistant), MT4, read-out: IC50 virus production): 32 ± 8 nM
- IC50 ([4]; HIV-1 IIIB, CEM-SS or MT4, read-out: Antiviral Assay IC50 IIIB): 31 nM
- IC50 ([4]; HIV-1 IIIB, MT4, read-out: IC50 virus production): 34 ± 16 nM
- IC50 ([4]; HIV-1 RF, CEM-SS or MT4, read-out: Antiviral Assay IC50 RF): 16 nM
- IC50 ([4]; HIV-1 RF, MT4, read-out: IC50 virus production): 18 ± 20 nM
- IC50 (SIVMAC251): 548 ± 480 nM
- IC50 virus-induced cytopathogenicity (Coxsackie virus (B4); Coxsackie virus (B4)): >400 µg/mL
- MCC minimum concentration altering normal cell morphology (Coxsackie virus (B4); Coxsackie virus (B4) assay): >400 μg/mL

Molecule: 5′-gtggtgggtgggtgggtggtgggtggtggttgtgggtgggtggtg-3′ [I100-07]
- inhibition of detection of immobilized gp120 by HRP-α-gp120 antibody ([6]; control experiment): did not inhibit
- IC50 [6, 10]: 4250 nM
- IC50 [6, 11]: 800 nM
- Percent p24 relative to infected untreated control, Day 7 (HIV-1DV; 2.5 uM, drug removed day 4): 15.9%
- Percent p24 relative to infected untreated control, Day 11 (HIV-1DV; 2.5 uM, drug removed day 4): 8.6%
- Percent p24 relative to infected untreated control, Day 4 (HIV-1DV; 2.5 uM, medium replaced day 4): 6.0%
- IC50 (HIV-1DV; SUP T1, HIV-1DV, four days): 550 nM
- IC50 (HIV-1 strain DV; SUP T1, HIV-1DV, four days, read-out: IC50 Syn (syncytium inhibition)): 250 nM
- IC50 (HIV-1 strain DV; [12]): 250 nM
- CC50 (SUP T1 cells [7]): > 50000 nM
- Ki (HIV-1 RT): 137 nM
- IC50 (HIV-1 RT): 2500 nM

Molecule: COc1cc(-c2ccc(/N=N/c3ccc4c(S(=O)(=O)O)cc(S(=O)(=O)O)c(N)c4c3O)c(OC)c2)ccc1/N=N/c1ccc2c(S(=O)(=O)O)cc(S(=O)(=O)O)c(N)c2c1O [CSB, Chicago sky blue]
- IC50 [8]: 800 nM
- viral cDNA 12 hours post-infection, drug added at time of infection (HIV-1SKI): no detectable viral DNA
- delay of drug addition post-infection at which inhibitory effect is lost (HIV-1IIIB): one hour post-virus infection
- IC50 ([4]; Human immunodeficiency virus 1, IIIB, CEM-SS, read-out: Antiviral Assay IC50 IIIB, HIV-1 IIIB, CEM-SS or MT4): 600 nM
- IC50 ([4]; Human immunodeficiency virus 1, IIIB, CEM-SS, read-out: Antiviral Assay IC50 RF, HIV-1 RF, CEM-SS or MT4): 1700 nM
- IC50 ([4]; Human immunodeficiency virus 1, IIIB, CEM-SS, read-out: Antiviral Assay IC50 SKI, HIV-1 SKI, CEM-SS or MT4): 1600 nM
- IC50 (HIV-1RF): 260 nM

Molecule: 5′-gttgggggttgttggtggggtggtgg-3′ [I100-00] (DNA GTTGGGGGTTGTTGGTGGGGTGGTGG; phosphorodiamidate backbone, further chemistry not given here) [26 mer PD]
- IC50 [6, 10]: 18000 nM
- IC50 [6, 11]: 3500 nM
- IC50 (HIV-1 strain DV; [12]): 3750 nM
- CC50 (SUP T1 cells [9]): 37000 nM
- Ki (HIV-1 RT): 370 nM
- IC50 (HIV-1 RT): 5000 nM
